{"source": "patent US20120252675A1", "about": "“HERBICIDE […] A […] E[…] A POLYA[…] THE ALKYL GROUP IS BRANCHED” (priority 2009, published 2012)", "origin": "cited, not measured here", "conditions": "room temperature"}
{"compound": "O=C(O)CNCP(=O)(O)O", "note": "[glyphosate]", "values": [{"measurement": "solubility in water", "value": "about 1.5 % by weight"}]}
